From patent US20220146492A1, “CELL MEMBRANE PERMEABILITY RESTORING THERAPY” (priority 2019, published 2022)

Test system: RBCs
Assay: Cell scan of RBC membrane permeability (Pk0) after contacting whole blood from a healthy volunteer with an agent
Type: cell-based, human
Details: for Induction of water permeability resistance (decreased RBC membrane permeability to water): agents at concentrations consistent with in vivo concentration; for Pk0 (mOsm/kg): whole blood in ACD, healthy volunteer, measured after exposure (method: five minutes), lactose 1:20 (v/v) saturated lactose solution, amphotericin B 0.5 μg/mL
Procedure: A sample of whole blood from a healthy volunteer was drawn into ACD anticoagulant. The unwashed sample was divided into aliquots and was analyzed using the Prior Shine Technology and/or the Provided Cell Scanning Technologies. The following outputs were obtained from the sample:
Using the technologies described herein, a cell-by-cell analysis was converted into a plot of percent change of cell volume vs. osmolality (“Cell Scan Plot”) by converting the individual peak voltage into a cell volume, then calculating a mean volume for an aliquot of cells, and plotting the means to generate the Cell Scan Plot. The percentage change of cell volume at each osmolality is calculated and compared to the mean cell volume of an isotonic cell (e.g., FIG. 1b). On such a plot, Pk0 (see 101) is the osmotic pressure at which the net water flow is zero (i.e., when a cell achieved its maximum volume, i.e., when it is a perfect sphere). As described herein, in some embodiments, Pk0 can be used as an indicator of an individual's health status.
A sample of whole blood from a healthy volunteer was drawn into ACD anticoagulant. Blood samples were divided into aliquots, and each sample was contacted with an agent at concentrations consistent with the agent's in vivo concentration. Agents that were tested included alcohols, alpha fetoproteins, amphotericin B, bovine albumen, carcinoembryonic antigen (CEA), concanavalin A (Con A), fetuin, fibronectin, 5-HT, kallikrein, ovomucoid, prostacyclin, prostaglandin, semen, transferrin, and several sugars, including N-acetyl-D-glucosamine, N-acetyl neurominic acid, 2-deoxy-D-ribose, fructose, D- and L-arabinose, beta-D-galactopyranoside, erythrose, D- and L-fucose, D- and L-glucose, D-galactose, lactose, maltose, iso-maltose, D-mannose, mannitol, L-rhamnose, ribose, sucrose, and D-xylose. Five minutes after exposure to an agent, the blood sample was evaluated for cell membrane permeability and Pk0 was measured. […] Lactose ([…]) lowered Pk0 to 110 mOsm/kg.
A sample of whole blood from a healthy volunteer was drawn into ACD anticoagulant. The sample was then treated with 5-HT (900 ng/mL), and cell membrane permeability was evaluated 5 minutes after treatment.

Row | Structure (SMILES) | Pk0 after treatment with 5-HT (5-HT 900 ng/mL, 5 minutes after treatment, normal Pk0 before approx. 140 mOsm/kg (FIG. 8)) | Pk0 shift after contacting with 5-HT (FIG. 8, RBCs from normal healthy individual, before vs after 5-HT) | Induction of water permeability resistance (decreased RBC membrane permeability to water) | Pk0 (mOsm/kg) (5-HT 900 ng/mL) | Pk0 lowered to (after 10 minutes) [mOsm/kg]
1 | NCCc1c[nH]c2ccc(O)cc12 [Agent 5-HT, 5-hydroxytryptamine] | approx. 110 mOsm/kg | approx. 30 mOsm/kg | effective within minutes | 110 | 
2 | OC[C@H]1O[C@@H](O[C@H]2[C@H](O)[C@@H](O)C(O)O[C@@H]2CO)[C@H](O)[C@@H](O)[C@H]1O (stereo partly drawn) [Lactose] |  |  | identified as RBC membrane permeability decreasing agents | 110 | 110
3 | C[C@@H]1[C@H](O)[C@@H](C)/C=C/C=C/C=C/C=C/C=C/C=C/C=C/[C@H](O[C@@H]2O[C@H](C)[C@@H](O)[C@H](N)[C@@H]2O)C[C@@H]2O[C@](O)(C[C@@H](O)C[C@@H](O)[C@H](O)CC[C@@H](O)C[C@@H](O)CC(=O)O[C@H]1C)C[C@H](O)[C@H]2C(=O)O [Amphotericin B] |  |  | identified as RBC membrane permeability decreasing agents | 85 | 
